# Assay results published in patent US9475816B2, “Substituted-1,4-dihydropyrazolo[4,3-b]indoles” (TAKEDA PHARMACEUTICAL COMPANY LIMITED, priority 2012, dated 2016).
# How the values were obtained:
# [1] = molecular target: T1, human MetAP2 enzyme (Homo sapiens, UniProt P50579); experiment: MetAP2 enzyme assay, MetAP2 enzyme complexed with cobalt ions; settings: MetAP2 Co pIC50, 10 μM CoCl2; -log(IC50), IC50 molar
# Experimental: (§1) DNA encoding the full-length sequence of human MetAP2 enzyme is amplified by PCR and cloned into a pFastBac expression vector (Invitrogen). Recombinant baculovirus incorporating the MetAP2 construct is generated by transposition using the Bac-to-Bac system (Invitrogen). The expression of recombinant protein is carried out by infection of Spodoptera frugiperda Sf9 cells (Invitrogen) in 5L Wave Bioreactors (Wave Biotech). Recombinant protein is isolated from cellular extracts by binding to an SP Hitrap Fast Flow or SP Sepharose (Sigma) column, and the protein is eluted using a NaCl gradient. Partially purified extracts of MetAP2 are further purified by an AKTA FPLC over a Superdex-200 column (GE). The purity of MetAP2 protein is determined on denaturing SDS-PAGE gel.
# (§2) The results for each well are expressed as percent inhibition and calculated using the equation:
# [2] = molecular target: T1, human MetAP2 enzyme; experiment: MetAP2 enzyme assay, MetAP2 enzyme complexed with manganese ions; settings: MetAP2 Mn pIC50, 10 μM MnCl2; -log(IC50), IC50 molar
# Experimental: as §1, §2
# T1 sequence (P50579 whole entry): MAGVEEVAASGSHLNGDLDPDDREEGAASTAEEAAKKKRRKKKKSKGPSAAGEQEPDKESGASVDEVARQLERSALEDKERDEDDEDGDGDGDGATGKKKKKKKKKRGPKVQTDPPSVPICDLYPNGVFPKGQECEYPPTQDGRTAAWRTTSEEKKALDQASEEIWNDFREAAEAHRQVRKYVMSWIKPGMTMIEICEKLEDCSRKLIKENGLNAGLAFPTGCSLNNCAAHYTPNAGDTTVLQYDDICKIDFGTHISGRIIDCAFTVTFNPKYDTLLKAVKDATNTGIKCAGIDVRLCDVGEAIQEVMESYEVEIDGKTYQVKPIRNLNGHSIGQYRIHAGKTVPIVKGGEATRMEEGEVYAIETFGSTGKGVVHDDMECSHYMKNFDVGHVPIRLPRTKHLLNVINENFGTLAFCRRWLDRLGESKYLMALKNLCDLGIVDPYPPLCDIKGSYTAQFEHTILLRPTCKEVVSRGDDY
Structure (SMILES),IC50 [1],IC50 [2]
"Cc1cc2nn(C)cc2cc1-n1c2ccc(F)cc2c2[nH]ncc21 [Example 15, 4-(2,6-Dimethyl-2H-indazol-5-yl)-7-fluoro-1,4-dihydropyrazolo[4,3-b]indole]",10 nM,10 nM
"Cc1nc(N2CC(CO)C2)ncc1-n1c2ccc(F)cc2c2[nH]ncc21 [Example 47, (1-(5-(7-Fluoropyrazolo[4,3-b]indol-4(1H)-yl)-4-methylpyrimidin-2-yl)azetidin-3-yl)methanol]",7.94 nM,12.6 nM
"Cc1nc(NCCO)ncc1-n1c2ccc(F)cc2c2[nH]ncc21 [Example 74, 2-((5-(7-Fluoropyrazolo[4,3-b]indol-4(1H)-yl)-4-methylpyrimidin-2-yl)amino)ethanol]",10 nM,7.94 nM
"Cc1nc(C(=O)N(C)CCO)ccc1-n1c2ccc(F)cc2c2[nH]ncc21 [Example 120, 5-(7-Fluoropyrazolo[4,3-b]indol-4(1H)-yl)-N-(2-hydroxyethyl)-N,6-dimethylpicolinamide]",15.8 nM,15.8 nM
"O=c1[nH]c(N2CC[C@@H](O)C2)ncc1-n1c2ccc(F)cc2c2[nH]ncc21 [Example 84, (R)-5-(7-Fluoropyrazolo[4,3-b]indol-4(1H)-yl)-2-(3-hydroxypyrrolidin-1-yl)pyrimidin-4(3H)-one]",20 nM,10 nM
"Cc1c(-n2c3ccc(F)cc3c3[nH]ncc32)ccc2c1cnn2C [Example 17, 4-(1,4-Dimethyl-1H-indazol-5-yl)-7-fluoro-1,4-dihydropyrazolo[4,3-b]indole]",7.94 nM,6.31 nM
"Cc1cc(N)ncc1-n1c2ccc(F)cc2c2[nH]ncc21 [Example 41, 5-(7-Fluoropyrazolo[4,3-b]indol-4(1H)-yl)-4-methylpyridin-2-amine]",12.6 nM,12.6 nM
"Cc1nc(N2CC[C@H](O)C2)ccc1-n1c2ccc(F)cc2c2[nH]ncc21 [Example 27, (3S)-1-(5-(7-Fluoropyrazolo[4,3-b]indol-4(1H)-yl)-6-methylpyridin-2-yl)pyrrolidin-3-ol]",6.31 nM,3.98 nM
"CC(c1ccccc1)n1c2ccc(F)cc2c2[nH]ncc21 (centres unmarked) [Example 132, 7-Fluoro-4-(1-phenylethyl)-1,4-dihydropyrazolo[4,3-b]indole]",50.1 nM,50.1 nM
"COc1ccc(-n2c3ccc(F)cc3c3[nH]ncc32)c(C)n1 [Example 69, 7-Fluoro-4-(6-methoxy-2-methylpyridin-3-yl)-1,4-dihydropyrazolo[4,3-b]indole]",20 nM,5.01 nM
"Cc1nc(C(=O)N2CC(C#N)C2)ccc1-n1c2ccc(F)cc2c2[nH]ncc21 [Example 125, 1-(5-(7-Fluoropyrazolo[4,3-b]indol-4(1H)-yl)-6-methylpicolinoyl)azetidine-3-carbonitrile]",12.6 nM,10 nM
"Cn1nccc1-n1c2ccc(F)cc2c2[nH]ncc21 [Example 46, 7-Fluoro-4-(1-methyl-1H-pyrazol-5-yl)-1,4-dihydropyrazolo[4,3-b]indole]",20 nM,20 nM
"Cc1nc(C(=O)N2CC(N)C2)ccc1-n1c2ccc(F)cc2c2[nH]ncc21 [Example 117, (3-Aminoazetidin-1-yl)(5-(7-fluoropyrazolo[4,3-b]indol-4(1H)-yl)-6-methylpyridin-2-yl)methanone]",20 nM,7.94 nM
"Cc1c(-n2c3ccc(F)cc3c3[nH]ncc32)ccc2[nH]ncc12 [Example 71, 7-Fluoro-4-(4-methyl-1H-indazol-5-yl)-1,4-dihydropyrazolo[4,3-b]indole]",12.6 nM,10 nM
"Cc1nc(N2CCN(C)C(=O)C2)ncc1-n1c2ccc(F)cc2c2[nH]ncc21 [Example 39, 4-(5-(7-Fluoropyrazolo[4,3-b]indol-4(1H)-yl)-4-methylpyrimidin-2-yl)-1-methylpiperazin-2-one]",6.31 nM,7.94 nM
"Cc1nc(CCS(C)(=O)=O)ccc1-n1c2ccc(F)cc2c2[nH]ncc21 [Example 133, 7-Fluoro-4-(2-methyl-6-(2-(methylsulfonyl)ethyl)pyridin-3-yl)-1,4-dihydropyrazolo[4,3-b]indole]",10 nM,6.31 nM
"COCc1[nH]ncc1-n1c2ccc(F)cc2c2[nH]ncc21 [Example 65, 7-Fluoro-4-(5-(methoxymethyl)-1H-pyrazol-4-yl)-1,4-dihydropyrazolo[4,3-b]indole]",12.6 nM,10 nM
"Cc1nc(N2CC[C@H](S(C)(=O)=O)C2)ncc1-n1c2ccc(F)cc2c2[nH]ncc21 [Example 137, 7-Fluoro-4-(4-methyl-2-((S)-3-(methylsulfonyl)pyrrolidin-1-yl)pyrimidin-5-yl)-1,4-dihydropyrazolo[4,3-b]indole]",10 nM,6.31 nM
"Cc1nc2[nH]cnc2cc1-n1c2cc(Cl)c(F)cc2c2[nH]ncc21 [Example 129, 6-Chloro-7-fluoro-4-(5-methyl-3H-imidazo[4,5-b]pyridin-6-yl)-1,4-dihydropyrazolo[4,3-b]indole]",25.1 nM,50.1 nM

Structure (SMILES),IC50 [1],IC50 [2]
"Cc1nc(N[C@@H](C)CO)ncc1-n1c2ccc(F)cc2c2[nH]ncc21 [Example 91, (2S)-2-((5-(7-Fluoropyrazolo[4,3-b]indol-4(1H)-yl)-4-methylpyrimidin-2-yl)amino)propan-1-ol]",6.31 nM,12.6 nM
"Cc1nc(N2CCO[C@H](CO)C2)ncc1-n1c2ccc(F)cc2c2[nH]ncc21 [Example 83, ((2S)-4-(5-(7-Fluoropyrazolo[4,3-b]indol-4(1H)-yl)-4-methylpyrimidin-2-yl)morpholin-2-yl)methanol]",6.31 nM,7.94 nM
"Cc1cc(N(C)CCO)ncc1-n1c2ccc(F)cc2c2[nH]ncc21 [Example 63, 2-((5-(7-Fluoropyrazolo[4,3-b]indol-4(1H)-yl)-4-methylpyridin-2-yl)(methyl)amino)ethanol]",15.8 nM,15.8 nM
"Fc1cc2c3[nH]ncc3n(Cc3ccccc3)c2cc1F [Example 2, 4-Benzyl-6,7-difluoro-1,4-dihydropyrazolo[4,3-b]indole]",100 nM,50.1 nM
"Cc1nc(N2CC[C@@H](C(N)=O)C2)ncc1-n1c2ccc(F)cc2c2[nH]ncc21 [Example 20, (3R)-1-(5-(7-Fluoropyrazolo[4,3-b]indol-4(1H)-yl)-4-methylpyrimidin-2-yl)pyrrolidine-3-carboxamide]",12.6 nM,6.31 nM
"Nc1ncc(C(=O)O)cc1-n1c2ccc(F)cc2c2[nH]ncc21 [Example 18, 6-Amino-5-(7-fluoropyrazolo[4,3-b]indol-4(1H)-yl)nicotinic acid]",100 nM,63.1 nM
"Cc1nc(N2CCC[C@@H](O)C2)ncc1-n1c2ccc(F)cc2c2[nH]ncc21 [Example 24, (3R)-1-(5-(7-Fluoropyrazolo[4,3-b]indol-4(1H)-yl)-4-methylpyrimidin-2-yl)piperidin-3-ol]",6.31 nM,3.98 nM
"Cc1nc(N2C[C@@H](O)[C@H](O)C2)ncc1-n1c2ccc(F)cc2c2[nH]ncc21 [Example 76, (3R,4R)-1-(5-(7-Fluoropyrazolo[4,3-b]indol-4(1H)-yl)-4-methylpyrimidin-2-yl)pyrrolidine-3,4-diol]",10 nM,6.31 nM
"CNC(=O)c1ccc(-n2c3ccc(F)cc3c3[nH]ncc32)c(C)n1 [Example 119, 5-(7-Fluoropyrazolo[4,3-b]indol-4(1H)-yl)-N,6-dimethylpicolinamide]",20 nM,10 nM
"CNC(=O)[C@@H]1CCCN1c1ncc(-n2c3ccc(F)cc3c3[nH]ncc32)c(C)n1 [Example 38, (2S)-1-(5-(7-Fluoropyrazolo[4,3-b]indol-4(1H)-yl)-4-methylpyrimidin-2-yl)-N-methylpyrrolidine-2-carboxamide]",6.31 nM,7.94 nM
"Cc1nc2c(cc1-n1c3ccc(F)cc3c3[nH]ncc31)[nH]c(=O)n2C[C@H](O)CO [Example 33, 3-((S)-2,3-Dihydroxypropyl)-6-(7-fluoropyrazolo[4,3-b]indol-4(1H)-yl)-5-methyl-1H-imidazo[4,5-b]pyridin-2(3H)-one]",7.94 nM,10 nM
"Cc1cc(C(N)=O)ncc1-n1c2ccc(F)cc2c2[nH]ncc21 [Example 107, 5-(7-Fluoropyrazolo[4,3-b]indol-4(1H)-yl)-4-methylpicolinamide]",20 nM,12.6 nM
"Cc1ccc(-n2c3ccc(F)cc3c3[nH]ncc32)c(C)n1 [Example 10, 4-(2,6-Dimethylpyridin-3-yl)-7-fluoro-1,4-dihydropyrazolo[4,3-b]indole]",12.6 nM,7.94 nM
"Cc1nc2c(cc1-n1c3ccc(F)cc3c3[nH]ncc31)ncn2C[C@@H](O)CO [Example 90, (2R)-3-(6-(7-Fluoropyrazolo[4,3-b]indol-4(1H)-yl)-5-methyl-3H-imidazo[4,5-b]pyridin-3-yl)propane-1,2-diol]",15.8 nM,5.01 nM
"Cc1nc(C(=O)NCCC#N)ccc1-n1c2ccc(F)cc2c2[nH]ncc21 [Example 122, N-(2-Cyanoethyl)-5-(7-fluoropyrazolo[4,3-b]indol-4(1H)-yl)-6-methylpicolinamide]",7.94 nM,7.94 nM
"Cc1nc(N2CCC(O)CC2)ncc1-n1c2ccc(F)cc2c2[nH]ncc21 [Example 78, 1-(5-(7-Fluoropyrazolo[4,3-b]indol-4(1H)-yl)-4-methylpyrimidin-2-yl)piperidin-4-ol]",15.8 nM,10 nM
"CCn1nc(C)c(-n2c3ccc(F)cc3c3[nH]ncc32)c1C [Example 23, 4-(1-Ethyl-3,5-dimethyl-1H-pyrazol-4-yl)-7-fluoro-1,4-dihydropyrazolo[4,3-b]indole]",10 nM,15.8 nM
"Cc1nc(N2CCC(O)CC2)ncc1-n1c2ccc(F)cc2c2[nH]ncc21 [Example 29, 1-(5-(7-Fluoropyrazolo[4,3-b]indol-4(1H)-yl)-4-methylpyrimidin-2-yl)piperidin-4-ol]",6.31 nM,7.94 nM
